Test results as given in patent US20240090503A1, “FUNGICIDAL OXADIAZOLES AND THEIR MIXTURES” (FMC CORPORATION, priority 2020, published 2024).
Marks after values point to notes of the source that are not given here.

Experiments:
Type in all cases: in vivo
[1] = system: Phakopsora pachyrhizi (the causal agent of Asian soybean rust); test: Test A: preventive spray on soybean seedlings, Asian soybean rust, visual disease rating; settings: soybean seedlings
Summary of the method: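 Compound in acetone/water (50/50) with 250 ppm PEG400 sprayed to run-off on soybean seedlings; inoculated next day with Phakopsora pachyrhizi spores. Held 24 h at 22° C in saturated atmosphere, then 8 days in a 22° C growth chamber before visual rating as % disease control relative to controls.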

[2] = system: Zymoseptoria tritici (the causal agent of wheat leaf blotch); test: Test B: preventive spray on wheat seedlings, wheat leaf blotch, visual disease rating; settings: wheat seedlings
Description: General protocol for preparing test suspensions for Tests A-D: the test compounds were first dissolved in acetone in an amount equal to 3% of the final volume and then suspended at the desired concentration (in ppm) in acetone and purified water (50/50 mix by volume) containing 250 ppm of the surfactant PEG400 (polyhydric alcohol esters). The resulting test suspensions were then used in Tests A-D.
The test suspension was sprayed to the point of run-off on wheat seedlings. The following day the seedlings were inoculated with a spore suspension of Zymoseptoria tritici (the causal agent of wheat leaf blotch) and incubated in a saturated atmosphere at 24° C. for 48 h, and then moved to a growth chamber at 20° C. for 17 days, after which time visual disease ratings were made.
The test results for Tests A-C presented in Table A below for compounds of Formula 1 illustrate the fungicidal activity of component (a) contributing to the plant disease control utility of compositions comprising component (a) in combination with component (b) according to the present invention. In the Table, a rating of 100 indicates 100% disease control and a rating of 0 indicates no disease control (relative to the controls). A dash (-) indicates the compound was not tested. The test suspensions were sprayed at the concentration listed in the column “Rate in ppm”, unless otherwise indicated. An asterisk “*” next to the rating indicates a 250 ppm test suspension was used, a double asterisk “**” next to the rating indicates a 100 ppm test suspension was used, and a triple asterisk “***” next to the rating indicates a 50 ppm test suspension was used.

[3] = system: Puccinia recondita f. sp. tritici (the causal agent of wheat leaf rust); test: Test C: preventive spray on wheat seedlings, wheat leaf rust, visual disease rating; settings: wheat seedlings
Summary of the method: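 Wheat seedlings sprayed to run-off with compound in acetone/water (50/50) with 250 ppm PEG400, then inoculated with spores the following day. After 24 h saturated humidity at 20° C. and 6 days in growth chamber at 20° C., disease rated visually as % control relative to untreated controls.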

[4] = 10 ppm test suspension, 100 = 100% disease control, 0 = no control
[5] = 250 ppm test suspension, 100 = 100% disease control
[6] = test suspension 10 ppm, 100 = 100% disease control, 0 = no control
[7] = 50 ppm test suspension, 100 = 100% disease control, 0 = no control

FC(F)(F)c1ccn(Cc2ccc(-c3noc(C(F)(F)F)n3)cc2)n1 [compound 153]
Test A disease control rating ([1]; test suspension 250 ppm): 100%
Test B disease control rating ([2]; test suspension 250 ppm): 0%
Test C disease control rating ([3]; test suspension 250 ppm): 89%

O=C(NCCC(F)(F)F)c1csc(Cc2ccc(-c3noc(C(F)(F)F)n3)cc2)n1 [compound 397]
Test A disease control rating [1, 4]: 100%
Test B disease control rating [2, 5]: 82* %
Test C disease control rating [3, 4]: 98%

CC(C)c1nn(Cc2ccc(-c3noc(C(F)(F)F)n3)cc2)c(=O)n1C [compound 237]
Test A disease control rating ([1]; test suspension 250 ppm): 100%
Test B disease control rating ([2]; test suspension 250 ppm): 94%
Test C disease control rating ([3]; test suspension 250 ppm): 100%

CCOC(=O)c1c2ccccc2nn1Cc1ccc(-c2noc(C(F)(F)F)n2)cc1 [compound 123]
Test A disease control rating ([1]; test suspension 255 ppm): 100%
Test B disease control rating ([2]; test suspension 255 ppm): 21%
Test C disease control rating ([3]; test suspension 255 ppm): 99%

N#Cc1cn(Cc2ccc(-c3noc(C(F)(F)F)n3)cc2)c2ccccc12 [compound 129]
Test A disease control rating ([1]; test suspension 260 ppm): 100%
Test B disease control rating ([2]; test suspension 260 ppm): 0%
Test C disease control rating ([3]; test suspension 260 ppm): 89%

C=CCOC(=O)c1coc(Cc2ccc(-c3noc(C(F)(F)F)n3)cc2)n1 [compound 334]
Test A disease control rating [1, 6]: 99%
Test B disease control rating ([2]; test suspension 250 ppm): 92* %
Test C disease control rating ([3]; test suspension 10 ppm): 86%

Cn1c(C2CC2)nn(Cc2ccc(-c3noc(C(F)(F)F)n3)cc2)c1=O [compound 236]
Test A disease control rating ([1]; test suspension 250 ppm): 100%
Test B disease control rating ([2]; test suspension 250 ppm): 83%
Test C disease control rating ([3]; test suspension 250 ppm): 100%

N#CCNC(=O)c1csc(Cc2ccc(-c3noc(C(F)(F)F)n3)cc2)n1 [compound 393]
Test A disease control rating [1, 4]: 100%
Test B disease control rating [2, 5]: 94* %
Test C disease control rating [3, 4]: 100%

NC(=O)c1coc(Cc2ccc(-c3noc(C(F)(F)F)n3)cc2)n1 [compound 254]
Test A disease control rating [1, 6]: 100%
Test B disease control rating ([2]; test suspension 250 ppm): 70* %
Test C disease control rating ([3]; test suspension 10 ppm): 100%

FC(F)(F)c1nc(-c2ccc(OCc3cn4cccnc4n3)cc2)no1 [compound 319]
Test A disease control rating [1, 6]: 97%
Test B disease control rating ([2]; test suspension 250 ppm): 33* %
Test C disease control rating ([3]; test suspension 10 ppm): 0%

CCOC(=O)c1nn(Cc2ccc(-c3noc(C(F)(F)F)n3)cc2)c2ccccc12 [compound 117]
Test A disease control rating ([1]; test suspension 255 ppm): 88%
Test B disease control rating ([2]; test suspension 255 ppm): 0%
Test C disease control rating ([3]; test suspension 255 ppm): 41%

O=C(NCCn1cccn1)c1cnn(COc2ccc(-c3noc(C(F)(F)F)n3)cc2)c1 [compound 215]
Test A disease control rating [1, 6]: 99%
Test B disease control rating ([2]; test suspension 250 ppm): 90* %
Test C disease control rating ([3]; test suspension 10 ppm): 74%

COc1ccc2c(C#N)nn(Cc3ccc(-c4noc(C(F)(F)F)n4)cc3)c2c1 [compound 120]
Test A disease control rating ([1]; test suspension 260 ppm): 99%
Test B disease control rating ([2]; test suspension 260 ppm): 0%
Test C disease control rating ([3]; test suspension 260 ppm): 68%

CCCOC(=O)c1cnn(COc2ccc(-c3noc(C(F)(F)F)n3)cc2)c1 [compound 217]
Test A disease control rating [1, 6]: 100%
Test B disease control rating ([2]; test suspension 250 ppm): 35* %
Test C disease control rating ([3]; test suspension 10 ppm): 86%

N#CCNC(=O)c1csc(COc2ccc(-c3noc(C(F)(F)F)n3)cc2)n1 [compound 473]
Test A disease control rating [1, 4]: 94%
Test B disease control rating [2, 5]: 28* %
Test C disease control rating [3, 4]: 89%

COCC(COC)NC(=O)c1csc(Cc2ccc(-c3noc(C(F)(F)F)n3)cc2)n1 [compound 489]
Test A disease control rating [1, 4]: 100%
Test B disease control rating [2, 5]: 92* %
Test C disease control rating [3, 4]: 99%

FC(F)(F)c1nc(-c2ccc(Cn3ncc4cc(Cl)ccc43)cc2)no1 [compound 119]
Test A disease control rating ([1]; test suspension 265 ppm): 100%
Test B disease control rating ([2]; test suspension 265 ppm): 54%
Test C disease control rating ([3]; test suspension 265 ppm): 100%

CCc1nn(Cc2ccc(-c3noc(C(F)(F)F)n3)cc2)c(=O)n1C [compound 235]
Test A disease control rating ([1]; test suspension 250 ppm): 100%
Test B disease control rating ([2]; test suspension 250 ppm): 87%
Test C disease control rating ([3]; test suspension 250 ppm): 100%

COc1cccc(Cn2ccc(-c3noc(C(F)(F)F)n3)cc2=O)c1 [compound 233]
pest or weed control at 50 µg/mL ([1]; Phakopsora pachyrhizi, 216 h, test suspension 50 ppm): 97%
pest or weed control at 250 µg/mL ([2]; Zymoseptoria tritici, 456 h, test suspension 250 ppm): 90%
pest or weed control at 50 µg/mL ([3]; Puccinia recondita, 168 h, test suspension 50 ppm): 100%

O=C(NCCOC(F)(F)F)c1coc(Cc2ccc(-c3noc(C(F)(F)F)n3)cc2)n1 [Compound 401, N-[2-(trifluoromethoxy)ethyl]-2-[[4-[5-(trifluoromethyl)-1,2,4-oxadiazol-3-yl]phenyl]methyl]-4-oxazolecarboxamide]
pest or weed control at 10 ppm ([1]; Phakopsora pachyrhizi, 216 h, 10 ppm test suspension, 100 = 100% disease control, 0 = no control): 100%
pest or weed control at 250 ppm ([2]; Zymoseptoria tritici, 456 h, 250 ppm test suspension, 100 = 100% disease control): 77%
pest or weed control at 10 ppm ([3]; Puccinia recondita, 168 h, 10 ppm test suspension, 100 = 100% disease control, 0 = no control): 99%

FC(F)(F)c1nc(-c2ccc(Cn3ncc4ccccc43)cc2)no1 [compound 143]
Test A disease control rating ([1]; test suspension 250 ppm): 100%
Test B disease control rating ([2]; test suspension 250 ppm): 71%
Test C disease control rating ([3]; test suspension 250 ppm): 100%

Cc1cc(C(F)(F)F)nn1Cc1ccc(-c2noc(C(F)(F)F)n2)cc1 [compound 132]
Test A disease control rating ([1]; test suspension 270 ppm): 100%
Test B disease control rating ([2]; test suspension 270 ppm): 0%
Test C disease control rating ([3]; test suspension 270 ppm): 95%

O=C(NCC1CC1)c1csc(Cc2ccc(-c3noc(C(F)(F)F)n3)s2)n1 [compound 202]
Test A disease control rating ([1]; test suspension 250 ppm): 100%
Test B disease control rating ([2]; test suspension 250 ppm): 83%
Test C disease control rating ([3]; test suspension 250 ppm): 100%

CCNC(=O)c1ccc(COc2ccc(-c3noc(C(F)(F)F)n3)cc2)s1 [compound 352]
Test A disease control rating [1, 6]: 87%
Test B disease control rating ([2]; test suspension 250 ppm): 0* %
Test C disease control rating ([3]; test suspension 10 ppm): 68%

O=S1(=O)CCCN1Cc1ccc(-c2noc(C(F)(F)F)n2)s1 [compound 324]
Test A disease control rating ([1]; test suspension 250 ppm): 100%
Test B disease control rating ([2]; test suspension 250 ppm): 80* %
Test C disease control rating ([3]; test suspension 250 ppm): 100%

CN(C)C(=O)c1coc(Cc2ccc(-c3noc(C(F)(F)F)n3)cc2)n1 [compound 315]
Test A disease control rating [1, 6]: 100%
Test B disease control rating ([2]; test suspension 250 ppm): 97* %
Test C disease control rating ([3]; test suspension 10 ppm): 99%

O=C(NCc1nccs1)c1coc(Cc2ccc(-c3noc(C(F)(F)F)n3)cc2)n1 [compound 277]
Test A disease control rating [1, 6]: 100%
Test B disease control rating ([2]; test suspension 250 ppm): 99* %
Test C disease control rating ([3]; test suspension 10 ppm): 100%

O=C(NCCn1cccn1)c1coc(COc2ccc(-c3noc(C(F)(F)F)n3)cc2)n1 [compound 466]
Test A disease control rating [1, 4]: 100%
Test B disease control rating [2, 5]: 3* %
Test C disease control rating [3, 4]: 55%

O=C(c1coc(Cc2ccc(-c3noc(C(F)(F)F)n3)cc2)n1)N1CCOCC1 [Compound 263]
Test A disease control rating [1, 6]: 100%
Test B disease control rating ([2]; test suspension 250 ppm): 95* %
Test C disease control rating ([3]; test suspension 10 ppm): 94%

FC(F)(F)c1nc(-c2ccc(Cn3cnc4ccccc43)cc2)no1 [compound 91]
Test A disease control rating ([1]; test suspension 250 ppm): 100%
Test B disease control rating ([2]; test suspension 250 ppm): 96%
Test C disease control rating ([3]; test suspension 250 ppm): 100%

COCC(COC)NC(=O)c1coc(Cc2ccc(-c3noc(C(F)(F)F)n3)cc2)n1 [compound 279]
Test A disease control rating [1, 6]: 100%
Test B disease control rating ([2]; test suspension 250 ppm): 94* %
Test C disease control rating ([3]; test suspension 10 ppm): 100%

Cc1ccccc1C(O)c1ccc(-c2noc(C(F)(F)F)n2)cc1 (stereo not shown) [Compound 497]
Test A disease control rating [1, 4]: 100%
Test B disease control rating [2, 5]: 5* %
Test C disease control rating [3, 4]: 0%

O=C(NCc1ccccc1)c1cnn(Cc2ccc(-c3noc(C(F)(F)F)n3)cc2)c1 [compound 484]
Test A disease control rating [1, 4]: 100%
Test C disease control rating [3, 4]: 100%

CCOC(=O)c1cnn(CCCc2ccc(-c3noc(C(F)(F)F)n3)cc2)c1 [compound 428]
Test A disease control rating [1, 7]: 100%
Test C disease control rating [3, 7]: 100%

CCCCON=C(C)COC(=O)c1cnn(Cc2ccc(-c3noc(C(F)(F)F)n3)cc2)c1 [compound 219]
Test A disease control rating [1, 6]: 100%
Test C disease control rating ([3]; test suspension 10 ppm): 86%

C[Si](C)(C)C#CCOC(=O)c1cnn(Cc2ccc(-c3noc(C(F)(F)F)n3)cc2)c1 [compound 348]
Test A disease control rating [1, 6]: 100%
Test C disease control rating ([3]; test suspension 10 ppm): 96%

FC(F)(F)c1nc(-c2ccc(Cn3ncc4cc(Br)cnc43)cc2)no1 [compound 413]
Test A disease control rating [1, 4]: 100%
Test C disease control rating [3, 4]: 68%
